{"source": "patent US8993282B2", "about": "“Carotenoid fermentation method” (JX Nippon Oil & Energy Corporation, priority 2008, dated 2015)", "format_in_all_cases": "cell-based", "key": {"[1]": {"system": "Paracoccus sp. strain Y-1071", "assay": "Glutamate supplementation, test tube culture (Pharmamedia medium), carotenoid by HPLC", "procedure": "(§1) In the examples, carotenoids were quantified by high performance liquid chromatography (HPLC) as follows.\n(§2) Two columns of Wakosil-II 5 SIL-100 (φ4.6×250 mm) (Wako Pure Chemical Industries, Ltd., Japan) were connected to each other for use as a column. Elution was performed by flowing an n-hexane-tetrahydrofuran-methanol mixed solution (40:20:1), which was a mobile phase, at a flow rate of 1.0 mL/minute at a constant temperature around room temperature. The measurement was performed as follows. Samples were each dissolved in tetrahydrofuran and then diluted 100-fold with the mobile phase. Each dilution was injected in a volume of 20 μL. The column eluate was detected at a wavelength of 470 nm. As a reference for quantification, astaxanthin (SIGMA, Cat. No. A9335) was used. The astaxanthin concentration of the reference solution was determined using the following equation after measuring the absorbance (A) of the reference solution at 477 nm and the area percentage % (B) of the astaxanthin peak at the time of HPLC analysis under the above conditions.\nNext, a medium of the following composition (sucrose 30 g/L, Pharmamedia 20 g/L, ammonium sulfate 1.5 g/L, potassium dihydrogenphosphate 1.5 g/L, disodium hydrogenphosphate 12-hydrate 3.8 g/L, calcium chloride dihydrate 0.1 g/L, magnesium sulfate 7-hydrate 4.5 g/L, iron sulfate 7-hydrate 5 g/L, biotin 1 mg/L, silicon-based defoaming agent 1 g/L) was dispensed in 8 ml volumes into cotton-plugged test tubes having an inner diameter of 18 mm (2 tubes in total). One of the tubes was supplemented with monosodium L-glutamate monohydrate to 30 mmol/L, while the other was supplemented with nothing as a control.\nThe resulting culture solution was then inoculated in 0.1 ml volumes into the two test tube media and cultured with shaking at 28° C. for 4 days at 300 spm.\nEach culture solution was measured for its carotenoid concentration by HPLC."}, "[2]": {"system": "Paracoccus sp. strain K-185", "assay": "Glutamate supplementation, test tube culture (soybean meal medium), carotenoid by HPLC", "procedure": "as §1, §2\nNext, a medium of the following composition (glucose 30 g/L, soybean meal 20 g/L, ammonium sulfate 1.5 g/L, potassium dihydrogenphosphate 1.5 g/L, disodium hydrogenphosphate 12-hydrate 3.8 g/L, calcium chloride dihydrate 5.0 g/L, magnesium sulfate 7-hydrate 0.7 g/L, iron sulfate 7-hydrate 0.6 g/L, ester-based defoaming agent 0.2 g/L) was dispensed in 8 ml volumes into cotton-plugged test tubes having an inner diameter of 18 mm (2 tubes in total). One of the test tubes was supplemented with monosodium L-glutamate monohydrate to 30 mmol/L, while the other was supplemented with nothing as a control.\nThe resulting culture solution was then inoculated in 0.1. ml volumes into the two test tube mediums and cultured with shaking at 28° C. for 3 days at 300 spm. Each culture solution was measured for its carotenoid concentration by HPLC."}, "[3]": {"system": "mutant Paracoccus sp. strain Y-1071", "assay": "Glutamate supplementation, 5 L fermentation tank culture, carotenoid by HPLC", "procedure": "as §1\nas §2, with “conditions. Astaxanthin concentration (mg/L)=A/2150×B×100” for “conditions.”\nA medium of the following composition (sucrose 20 g/L, filtered corn steep liquor 5 g/L, potassium dihydrogenphosphate 0.54 g/L, dipotassium hydrogenphosphate 12-hydrate 2.78 g/L, calcium chloride dihydrate 5.0 g/L, magnesium sulfate 7-hydrate 0.7 g/L, iron sulfate 7-hydrate 3.0 g/L, fatty acid-based defoaming agent 0.2 g/L, […]) was dispensed in 100 ml volumes into 500 mL cotton-plugged Erlenmeyer flasks and sterilized in an autoclave at 121° C. for 15 minutes to prepare a flask medium for seed culture in 2 flasks,\nNext, a medium of the following composition (sucrose 40 g/L, corn steep liquor 30 g/L, ammonium sulfate 0.5 g/L, potassium dihydrogenphosphate 2.25 g/L, disodium hydrogenphosphate 12-hydrate 5.7 g/L, calcium chloride dihydrate 0.1 g/L, magnesium sulfate 7-hydrate 0.5 g/L, iron sulfate 7-hydrate 5 g/L, fatty acid-based defoaming agent 0.5 g/L) was dispensed in 2.0 L volumes into 5 L fermentation tanks (2 tanks in total). One of the fermentation tanks was supplemented with monosodium L-glutamate monohydrate to 50 mmol/L, while the other was supplemented with nothing as a control. These fermentation tanks were sterilized in an autoclave at 121° C. for 30 minutes,\nA loopful of the mutant Paracoccus sp, strain Y-1071 selected in Example 3 was inoculated into the flask medium for seed culture and then cultured with rotary shaking at 28° C. for 2 days at 150 rpm. The resulting culture solution was then inoculated in 80 mL volumes into the individual fermentation tanks, followed by aerobic culture at 28° C. at an aeration volume of 1 vvm for 120 hours. […] during culture, the pH was continuously controlled with 15% aqueous ammonia. Glucose was added in an amount of 30 g on day 1, day 2 and day 3 of culture to prevent glucose depletion. The minimum number of agitation rotations was set to 100 rpm, and the number of agitation rotations was varied such that the dissolved oxygen concentration in the culture solution was maintained at 2 to 3 ppm. Bubbling was detected with a bubble sensor and suppressed by automatic addition of a fatty acid-based defoaming agent.\nAt the completion of culture, each culture solution was measured for its carotenoid concentration by HPLC."}, "[4]": {"settings": "Glutamic acid concentration 30 mmol/L, 28° C. for 4 days"}, "[5]": {"settings": "Glutamic acid concentration 30 mmol/L, 28° C. for 3 days"}, "[6]": {"settings": "Glutamic acid concentration 50 mmol/L, 120 hours"}}}
{"smiles": "N[C@@H](CCC(=O)O)C(=O)O", "note": "[Glutamic acid, glutamic acid]", "values": [{"measurement": "produced carotenoid concentration compared to the sample without glutamic acid", "setting": "[1]; 30 mmol/L", "value": "higher produced carotenoid concentration"}, {"measurement": "3-Hydroxyechinenone", "setting": "[1]; [4]", "value": 0.7, "unit": "mg/L"}, {"measurement": "Adonixanthin", "setting": "[1]; [4]", "value": 18.4, "unit": "mg/L"}, {"measurement": "Astaxanthin", "setting": "[1]; [4]", "value": 94.8, "unit": "mg/L"}, {"measurement": "Asteroidenone", "setting": "[1]; [4]", "value": 1.5, "unit": "mg/L"}, {"measurement": "Canthaxanthin", "setting": "[1]; [4]", "value": 10.0, "unit": "mg/L"}, {"measurement": "Echinenone", "setting": "[1]; [4]", "value": 6.5, "unit": "mg/L"}, {"measurement": "Phoenicoxanthin", "setting": "[1]; [4]", "value": 24.8, "unit": "mg/L"}, {"measurement": "Total carotenoid", "setting": "[1]; [4]", "value": 170.2, "unit": "mg/L"}, {"measurement": "Zeaxanthin", "setting": "[1]; [4]", "value": 0.28, "unit": "mg/L"}, {"measurement": "β-Carotene", "setting": "[1]; [4]", "value": 13.1, "unit": "mg/L"}, {"measurement": "β-Cryptoxanthin", "setting": "[1]; [4]", "value": 0.10, "unit": "mg/L"}, {"measurement": "produced carotenoid concentration compared to the sample without glutamic acid", "setting": "[2]; 30 mmol/L", "value": "higher produced carotenoid concentration"}, {"measurement": "3-Hydroxyechinenone", "setting": "[2]; [5]", "value": 0.1, "unit": "mg/L"}, {"measurement": "Adonixanthin", "setting": "[2]; [5]", "value": 1.6, "unit": "mg/L"}, {"measurement": "Astaxanthin", "setting": "[2]; [5]", "value": 9.2, "unit": "mg/L"}, {"measurement": "Asteroidenone", "setting": "[2]; [5]", "value": 0.1, "unit": "mg/L"}, {"measurement": "Canthaxanthin", "setting": "[2]; [5]", "value": 1.3, "unit": "mg/L"}, {"measurement": "Echinenone", "setting": "[2]; [5]", "value": 0.6, "unit": "mg/L"}, {"measurement": "Phoenicoxanthin", "setting": "[2]; [5]", "value": 2.0, "unit": "mg/L"}, {"measurement": "Total carotenoid", "setting": "[2]; [5]", "value": 17.1, "unit": "mg/L"}, {"measurement": "Zeaxanthin", "setting": "[2]; [5]", "value": 0.03, "unit": "mg/L"}, {"measurement": "β-Carotene", "setting": "[2]; [5]", "value": 2.1, "unit": "mg/L"}, {"measurement": "β-Cryptoxanthin", "setting": "[2]; [5]", "value": 0.02, "unit": "mg/L"}, {"measurement": "produced carotenoid concentration compared to the sample without glutamic acid", "setting": "[3]; 50 mmol/L", "value": "higher produced carotenoid concentration"}, {"measurement": "3-Hydroxyechinenone", "setting": "[3]; [6]", "value": 10, "unit": "mg/L"}, {"measurement": "Adonixanthin", "setting": "[3]; [6]", "value": 158, "unit": "mg/L"}, {"measurement": "Astaxanthin", "setting": "[3]; [6]", "value": 805, "unit": "mg/L"}, {"measurement": "Asteroidenone", "setting": "[3]; [6]", "value": 9, "unit": "mg/L"}, {"measurement": "Canthaxanthin", "setting": "[3]; [6]", "value": 101, "unit": "mg/L"}, {"measurement": "Echinenone", "setting": "[3]; [6]", "value": 62, "unit": "mg/L"}, {"measurement": "Phoenicoxanthin", "setting": "[3]; [6]", "value": 217, "unit": "mg/L"}, {"measurement": "Total carotenoid", "setting": "[3]; [6]", "value": 1458, "unit": "mg/L"}, {"measurement": "Zeaxanthin", "setting": "[3]; [6]", "value": 3, "unit": "mg/L"}, {"measurement": "β-Carotene", "setting": "[3]; [6]", "value": 93, "unit": "mg/L"}, {"measurement": "β-Cryptoxanthin", "setting": "[3]; [6]", "value": 0.5, "unit": "mg/L"}]}
